From patent publication US6761896B1, “Skin cosmetic care system and method” (Unilever Home & Personal Care USA, division of Conopco, Inc., priority 1998, dated 2004)
Where “and” joins values, the source holds several entries; their conditions need not be identical. Equal entries are not always repeated.

How the values were obtained:
Assay type in all cases: cell-based
MelanoDerm MEL-300 = assay: Pigmentation in MelanoDerm Living Skin Equivalent (blue colour image analysis); conditions: for Pigmentation Reduction Magnet % South Pole (B): day 14, South Pole magnet; for Pigmentation Reduction Magnet % South Pole (B) / Pigmentation Reduction % No Magnet (A): individual tissues; for Pigmentation Reduction % No Magnet (A): day 14, no magnet, relative to untreated control; for effect of South pole magnetism on skin depigmenting action: Kojic acid 500, Yohimbine 25, Ascorbic acid 285 micro-molar, magnet vs no magnet, p<0.05
Protocol: Kojic acid, Vitamin C, and Yohimbine were examined for their ability to reduce pigmentation in the MelanoDerm Living Skin Equivalent in the presence and absence of South Pole magnetism. After 14 days of incubation, during which one series of tissues was exposed to South Pole magnetism and an equivalent duplicate series was not, the melanin color formed in each tissue was estimated using primary color image analysis.
MelanoDerm™ MEL-300, a 3-dimensional epidermal model containing functioning melanoctyes produced by MatTek Corporation, Ashland, Mass., was the tissue used for this experiment. Each MEL-300 kit has 24 tissue pieces.
Three depigmenting actives were added to the Melanoderm incubation medium at the following final concentrations,
Two (2) MEL-300 kits, each with 24 tissue pieces, were prepared with identical application of actives. Each active, Vitamin C, Kojic acid & Yohimbine, was applied to the incubation medium of 5 tissues at the concentrations specified above. 4 tissues were untreated. […] One Mel-300 kit prepared as above was placed on the 6 inch×4 inch South Pole surface of the Ferrimag magnet for incubation, and the identical second Mel-300 kit was incubated at the opposite side (top left vs bottom right) of the same incubator and additionally shielded from the magnet.
The tissues were incubated for 14 days in maintenance medium at 37 degrees centigrade and a constant atmosphere (5%CO2). The maintenance medium and actives were replenished 4 times weekly. At 7 days, 2 tissues were removed from each active and control group leaving 3 tissues in each group (2 in the untreated group) for day 14 evaluation.
At the day 14 completion of the experiment the tissue pieces of each Mel-300 incubation plate were photographed from above. Each tissue appeared as a small disc varying in brown color intensity. The photographs of two Mel-300 incubation plates (one incubated on the magnet and one without magnetism) were scanned into a Pentium II computer and the color primary color content of each disc was measured using a color analysis macro within an Optimas image quantification software package. The blue color content was used as an index of melanin pigment (preliminary experiments confirmed that the principle primary color of melanin is blue using this image analysis system—this was established by comparing brown freckles and age spots with surrounding non-pigmented skin in color photographs of Caucasian human skin). The blue color intensity scale is 0-255 where 0 is saturation with blue color and 255 is total absence of blue color. The actual blue scale reading of each tissue sample was converted to a % blue value by computing it's proportion of the full range of 0to 255.

human sebocytes = assay: Lipid production by sebocytes in vitro (14C-acetate incorporation); conditions: for % Reduction: vs control of same plate
Protocol: This example measured the effect of various actives in combination with magnets on lipid production by sebocytes in vitro.
Secondary cultures of human sebocytes obtained from an adult […] were grown in the inner 24 wells of 48-well tissue culture plates (Costar Corp.; Cambridge, Mass.) until confluent. Sebocyte growth medium consisted of Clonetics Keratinocyte Basal Medium (KBM) supplemented with 14 ug/ml bovine pituitary extract, 0.4 ug/ml hydrocortisone, 5 ug/ml insulin, 10 ng/ml epidermal growth factor, 1.2×10^−10 M cholera toxin, 100 units/ml penicillin, and 100 ug/ml streptomycin. All cultures were incubated at 37° C. in the presence of 7.5% CO2. Medium was changed three times per week.
On the first day of experimentation, the growth medium was removed and the sebocytes washed three times with sterile Dulbecco's Modified Eagle Medium (DMEM; phenol red free). Fresh DMEM was added to each sample (triplicates) with 5 microliter of test agent solubilized in ethanol (312.5 uM iso-tridecylsalicylate or 10 uM Retinyl Linoleate; 6 replicates for each sample). Controls consisted of addition of ethanol alone. Each magnet was sandwiched between 2 plates for 24 hours. For 2 of the sebocyte plates, the configuration was North magnet pointing up, for 2 other plates, the configuration was reversed (South magnet up), and one plate served as a control (no presence of magnets).
After 24 hours, addition of ^14C-acetate buffer (5 mM final concentration, 56 mCi/mmol specific activity) was performed. Sebocytes were then returned to the incubator for four hours after which each culture was rinsed three times with phosphate buffered saline to remove unbound label. Radioactive label remaining in the sebocytes was harvested and counted using a Beckman scintillation counter.

IL1-a = IL1-a release by MelanoDerm Living Skin Equivalents (Elisa); parameters: IL1-a(i) / IL1-a(ii): unit not given here; conditions: 0.5% phytic acid; for IL1-a release % Untreated: 24 hr; for IL1-a(i): first determination; for IL1-a(i) / IL1-a(ii): individual tissues; for IL1-a Mean: mean of (i) and (ii); for IL1-a(ii): second determination 7 days later
Protocol: (§1) Phytic acid (0.5%) was examined for its effect on cytokine release by MelanoDerm Living Skin Equivalents in the presence and absence of South Pole magnetism. After 24 hours incubation, during which one set of tissues was exposed to South Pole magnetism and an equivalent duplicate series was not, the culture medium was assayed for IL1-a and PGE-2. In the absence of magnetism there was a significant increase in medium concentration of both IL1-a and PGE-2. These increases were suppressed in the presence of South pole magnetism. Living Skin Equivalent: MelanoDermTM MEL-300, a 3-dimensional epidermal model containing functioning melanoctyes produced by MatTek Corporation, Ashland, Mass., was the tissue used for this experiment. Fifty (50) microliters of phytic acid solution (0.5%) was applied to the stratum corneum surface of 4 MEL-300 tissues. Eight (8) untreated MEL-300 tisues served as controls. Half the tissues (i.e. 2 phytic acid and 4 untreated controls) were placed on the 6 inch×4 inch South Pole surface of the […] magnet for 24 hours incubation (37 degrees centigrade; 5% CO2). After the 24 hr incubation the tissues were removed from the incubation medium and assayed for MTT to confirm tissue viability. The incubation medium was assayed for content of cytokines IL1-a and PGE-2. The tissue samples were refrigerated and a second determination of cyotkines was made 7 days later. The cytokine assays were performed using commercially available 96 well Elisa kits.

MelanoDerm tissue = MelanoDerm tissue viability by MTT; conditions: 0.5% in water, preliminary experiment
Protocol: Phytic acid was tested at a concentration of 0.5% in water.

PGE-2 = PGE-2 release by MelanoDerm Living Skin Equivalents (Elisa); parameters: PGE-2(i) / PGE-2 (ii): unit not given beside the values; conditions: 0.5% phytic acid; for PGE-2 release % Untreated: 24 hr; for PGE-2(i): first determination; for PGE-2(i) / PGE-2 (ii): individual tissues; for PGE-2 Mean: mean of (i) and (ii); for PGE-2 (ii): second determination 7 days later
Protocol: as §1

[1] = 312.5 uM TDS, Plate A: No Magnet Presence
[2] = 312.5 uM TDS, Plate B: North Magnet Up (Top Plate)
[3] = 312.5 uM TDS, Plate C: North Magnet Up (Bottom Plate)
[4] = 312.5 uM TDS, Plate D: South Magnet Up (Top Plate)
[5] = 312.5 uM TDS, Plate E: South Magnet Up (Bottom Plate)
[6] = No Magnetism, increase over untreated
[7] = 10 uM Retinyl Linoleate, Plate A: No Magnet Presence
[8] = 10 uM Retinyl Linoleate, Plate B: North Magnet Up (Top Plate)
[9] = 10 uM Retinyl Linoleate, Plate C: North Magnet Up (Bottom Plate)
[10] = 10 uM Retinyl Linoleate, Plate D: South Magnet Up (Top Plate)
[11] = 10 uM Retinyl Linoleate, Plate E: South Magnet Up (Bottom Plate)

## O=C1O[C@H]([C@@H](O)CO)C(O)=C1O [Vitamine C, Ascorbic acid]
MelanoDerm MEL-300; Ascorbic acid 285 micro-molar
  Mean A-B (Mean Difference): −3.97
  Pigmentation Reduction Magnet % South Pole (B): −6.18% and −6.34% and −4.55%
  Pigmentation Reduction % No Magnet (A): −4.21% and −2.65% and 1.7%
MelanoDerm MEL-300
  effect of South pole magnetism on skin depigmenting action: enhances

## iso-tridecylsalicylate [TDS]
Human sebocytes; [1]
  DPMs (AVG): 2913.0 DPMs
  % Reduction: 36.3%
Human sebocytes; [2]
  DPMs (AVG): 3367.8 DPMs
  % Reduction: 23.6%
Human sebocytes; [3]
  DPMs (AVG): 3543.9 DPMs
  % Reduction: 4.9%
Human sebocytes; [4]
  DPMs (AVG): 3040.0 DPMs
  % Reduction: 14.7%
Human sebocytes; [5]
  DPMs (AVG): 2677.4 DPMs
  % Reduction: 20.5%

## O=P(O)(O)O[C@H]1[C@H](OP(=O)(O)O)[C@@H](OP(=O)(O)O)[C@H](OP(=O)(O)O)[C@@H](OP(=O)(O)O)[C@H]1OP(=O)(O)O [Phytic acid]
IL1-a; + South Pole Magnetism, increase over untreated plus magnet
  IL1-a release % Untreated: 16%
IL1-a; [6]
  IL1-a release % Untreated: 99%
IL1-a; South Pole magnet
  IL1-a(i): 239.1 and 108.9
  IL1-a Mean: 151.2 +/− 64
  IL1-a(ii): 158.2 and 98.4
IL1-a; no magnet
  IL1-a(i): 285.3 and 222.9
  IL1-a Mean: 209 +/− 61
  IL1-a(ii): 186.2 and 141.1
MelanoDerm tissue
  toxicity to MelanoDerm tissue (tissue viability by MTT): non-toxic
PGE-2; + South Pole Magnetism, change over untreated plus magnet
  PGE-2 release % Untreated: −2%
PGE-2; [6]
  PGE-2 release % Untreated: 191%
PGE-2; South Pole magnet
  PGE-2(i): 2056 and 2387
  PGE-2 Mean: 2093 +/− 208
  PGE-2 (ii): 1899 and 2030
PGE-2; no magnet
  PGE-2(i): 5326 and 4673
  PGE-2 Mean: 5136 +/− 421
  PGE-2 (ii): 5621 and 4923

## COC(=O)[C@@H]1[C@H]2C[C@H]3c4[nH]c5ccccc5c4CCN3C[C@@H]2CC[C@@H]1O [Yohimbine]
MelanoDerm MEL-300
  effect of South pole magnetism on skin depigmenting action: enhances
MelanoDerm MEL-300; Yohimbine 25 micro-molar
  Mean A-B (Mean Difference): −3.27
  Pigmentation Reduction Magnet % South Pole (B): −2.55% and −8.08% and −6.76%
  Pigmentation Reduction % No Magnet (A): 1.85% and −5.63% and −3.8%

## CCCCC/C=C\C/C=C\CCCCCCCC(=O)OC/C=C(C)/C=C/C=C(C)/C=C/C1=C(C)CCCC1(C)C [Retinyl Linoleate]
Human sebocytes; [7]
  DPMs (AVG): 4198.1 DPMs
  % Reduction: 3.9%
Human sebocytes; [8]
  DPMs (AVG): 4123.0 DPMs
  % Reduction: 6.5%
Human sebocytes; [9]
  DPMs (AVG): 3660.1 DPMs
  % Reduction: 1.8%
Human sebocytes; [10]
  DPMs (AVG): 3619.4 DPMs
  % Reduction: −1.6%
Human sebocytes; [11]
  DPMs (AVG): 3181.1 DPMs
  % Reduction: 5.6%

## O=c1cc(CO)occ1O [Kojic Acid, Kojic acid]
MelanoDerm MEL-300
  effect of South pole magnetism on skin depigmenting action: enhances
MelanoDerm MEL-300; Kojic acid 500 micro-molar
  Mean A-B (Mean Difference): −2.06
  Pigmentation Reduction Magnet % South Pole (B): −9.21% and −10.02% and 4.75%
  Pigmentation Reduction % No Magnet (A): −4.77% and −8.72% and −4.27%
